Assays:
[1] = test system: Human immunodeficiency virus 1; assay: Antiviral activity against […] HIV-1 infected in human MT4 cells assessed as reduction in virus-induced cytopathic effect incubated for 5 days by MTT assay; type: functional, organism-based; details: Human immunodeficiency virus 1, MT4, 120 h
[2] = Selectivity index, ratio of CC50 for human MT4 cells to EC50 for antiviral activity against NNRTI resistant HIV-1 infected in human MT4 cells; type: toxicity, cell-based; details: read-out: Ratio CC50/EC50
[3] = Cytotoxicity against human MT4 cells assessed as cell growth inhibition incubated for 5 days by MTT assay; type: toxicity, cell-based; details: time 5 day
[4] = test system: Human immunodeficiency virus 1; assay: Antiviral activity against drug-resistant HIV-1 Y188L mutant infected in human MT4 cells assessed as reduction in virus-induced cytopathic effect incubated for 5 days by MTT assay; type: functional, organism-based; details: Human immunodeficiency virus 1, Y188L mutant, MT4, 120 h
[5] = Fold resistance, ratio of EC50 for antiviral activity against drug-resistant HIV-1 K103 N mutant infected in human MT4 cells to EC50 for antiviral activity against […] HIV-1 infected in human MT4 cells; type: functional
[6] = Fold resistance, ratio of EC50 for antiviral activity against drug-resistant HIV-1 E138K mutant infected in human MT4 cells to EC50 for antiviral activity against […] HIV-1 infected in human MT4 cells; type: functional
[7] = Fold resistance, ratio of EC50 for antiviral activity against drug-resistant HIV-1 Y181C mutant infected in human MT4 cells to EC50 for antiviral activity against […] HIV-1 infected in human MT4 cells; type: functional
[8] = Fold resistance, ratio of EC50 for antiviral activity against drug-resistant HIV-1 Y188L mutant infected in human MT4 cells to EC50 for antiviral activity against […] HIV-1 infected in human MT4 cells; type: functional
[9] = test system: Human immunodeficiency virus 1; assay: Antiviral activity against drug-resistant HIV-1 E138K mutant infected in human MT4 cells assessed as reduction in virus-induced cytopathic effect incubated for 5 days by MTT assay; type: functional, organism-based; details: Human immunodeficiency virus 1, E138K mutant, MT4, 120 h
[10] = target: Human immunodeficiency virus type 1 reverse transcriptase (Human immunodeficiency virus 1, UniProt Q72547); assay: Inhibition of recombinant wild-type p66/p51 HIV-1 reverse transcriptase incubated for 40 mins by picogreen dye-based spectrofluorometric analysis
[11] = test system: Human immunodeficiency virus 1; assay: Antiviral activity against drug-resistant HIV-1 K103 N mutant infected in human MT4 cells assessed as reduction in virus-induced cytopathic effect incubated for 5 days by MTT assay; type: functional, organism-based; details: Human immunodeficiency virus 1, K103 N mutant, MT4, 120 h
[12] = test system: Human immunodeficiency virus 1; assay: Antiviral activity against drug-resistant HIV-1 L100I mutant infected in human MT4 cells assessed as reduction in virus-induced cytopathic effect incubated for 5 days by MTT assay; type: functional, organism-based; details: Human immunodeficiency virus 1, L100I mutant, MT4, 120 h
[13] = test system: Human immunodeficiency virus 1; assay: Antiviral activity against drug-resistant HIV-1 Y181C mutant infected in human MT4 cells assessed as reduction in virus-induced cytopathic effect incubated for 5 days by MTT assay; type: functional, organism-based; details: Human immunodeficiency virus 1, Y181C mutant, MT4, 120 h
[14] = Fold resistance, ratio of EC50 for antiviral activity against drug-resistant HIV-1 L100I mutant infected in human MT4 cells to EC50 for antiviral activity against […] HIV-1 infected in human MT4 cells; type: functional

Cc1c(C(C#N)c2ccc(-c3ccccc3)cc2)nc(SC(C)C)[nH]c1=O (stereo not given)
EC50 [1]: > 30.5 µM
selectivity ratio [2]: < 1
CC50 at 120 h [3]: 30.5 µM

Cc1c(C(C#N)c2cc(C(F)(F)F)cc(C(F)(F)F)c2)nc(SC(C)C)[nH]c1=O (stereo not given)
EC50 [4]: > 287 µM
EC50 [1]: 27.4 µM
Ratio EC50 [5]: >10
Ratio EC50 [6]: 8
Ratio EC50 [7]: 7
Ratio EC50 [8]: >10
EC50 [9]: 224 µM
IC50 [10]: 55.1 µM
EC50 [11]: > 287 µM
EC50 [12]: > 278 µM
EC50 [13]: 186 µM
CC50 at 120 h [3]: 287 µM
Ratio EC50 [14]: >10

Cc1c(C(C#N)c2cccnc2)nc(SC(C)C)[nH]c1=O (stereo not given)
EC50 [4]: > 363 µM
EC50 [1]: 26.2 µM
Ratio EC50 [5]: >14
Ratio EC50 [6]: 2
selectivity ratio [2]: 14
Ratio EC50 [7]: >14
Ratio EC50 [8]: >14
EC50 [9]: 54.1 µM
IC50 [10]: 318 µM
EC50 [11]: > 363 µM
EC50 [12]: 47.9 µM
EC50 [13]: > 363 µM
CC50 at 120 h [3]: 363 µM
Ratio EC50 [14]: 2

Cc1c(C(C#N)c2ccc(Cl)cc2)nc(SC(C)C)[nH]c1=O (stereo not given)
EC50 [4]: > 70.2 µM
EC50 [1]: 1.26 µM
Ratio EC50 [5]: >56
Ratio EC50 [6]: 3
selectivity ratio [2]: 56
Ratio EC50 [7]: >56
Ratio EC50 [8]: >56
EC50 [9]: 4.19 µM
IC50 [10]: 3.37 µM
EC50 [11]: > 70.2 µM
EC50 [12]: > 14.4 µM
EC50 [13]: > 70.2 µM
CC50 at 120 h [3]: 70.2 µM
Ratio EC50 [14]: >11

COc1ccc(C(C#N)c2nc(SC(C)C)[nH]c(=O)c2C)cc1 (stereo not given)
EC50 [4]: > 37.1 µM
EC50 [1]: 2.92 µM
Ratio EC50 [5]: >13
Ratio EC50 [6]: 1
selectivity ratio [2]: 13
Ratio EC50 [7]: >13
Ratio EC50 [8]: >13
EC50 [9]: 4.29 µM
IC50 [10]: 20.7 µM
EC50 [11]: > 37.1 µM
EC50 [12]: 9.7 µM
EC50 [13]: > 37.1 µM
CC50 at 120 h [3]: 37.1 µM
Ratio EC50 [14]: 3

Cc1cccc(C)c1C(C#N)c1nc(SC(C)C)[nH]c(=O)c1C (stereo not given)
EC50 [4]: > 68.1 µM
EC50 [1]: 0.93 µM
Ratio EC50 [5]: >73
Ratio EC50 [6]: 4
selectivity ratio [2]: 73
Ratio EC50 [7]: >73
Ratio EC50 [8]: >73
EC50 [9]: 3.48 µM
IC50 [10]: 6.59 µM
EC50 [11]: > 68.1 µM
EC50 [12]: > 68.1 µM
EC50 [13]: > 68.1 µM
CC50 at 120 h [3]: 68.1 µM
Ratio EC50 [14]: >73

Cc1c(C(C#N)c2cc(F)cc(F)c2)nc(SC(C)C)[nH]c1=O (stereo not given)
EC50 [4]: > 202 µM
EC50 [1]: 0.51 µM
Ratio EC50 [5]: 101
Ratio EC50 [6]: 4
selectivity ratio [2]: 394
Ratio EC50 [7]: 17
Ratio EC50 [8]: >396
EC50 [9]: 1.91 µM
IC50 [10]: 1.29 µM
EC50 [11]: 51.5 µM
EC50 [12]: 18.5 µM
EC50 [13]: 8.7 µM
CC50 at 120 h [3]: 202 µM
Ratio EC50 [14]: 36

Cc1cn([C@H]2C[C@H](N=[N+]=[N-])[C@@H](CO)O2)c(=O)[nH]c1=O [ZIDOVUDINE]
EC50 [4]: 0.0108 µM
EC50 [1]: 0.0229 µM
Ratio EC50 [5]: 1
Ratio EC50 [6]: 1
selectivity ratio [2]: > 309
Ratio EC50 [7]: 1
Ratio EC50 [8]: 0.5
EC50 [9]: 0.0268 µM
EC50 [11]: 0.0287 µM
EC50 [12]: 0.0084 µM
EC50 [13]: 0.0242 µM
Ratio EC50 [14]: 0.4

Cc1cc(C#N)cc(C)c1Oc1nc(Nc2ccc(C#N)cc2)nc(N)c1Br [ETRAVIRINE]
Ratio EC50 [5]: 1
Ratio EC50 [6]: 3
selectivity ratio [2]: > 1620
Ratio EC50 [7]: 6
Ratio EC50 [8]: 7
EC50 [9]: 0.0092 µM
EC50 [11]: 0.0034 µM
EC50 [12]: 0.0115 µM
EC50 [13]: 0.0162 µM
CC50 at 120 h [3]: 4.6 µM
Ratio EC50 [14]: 4

Cc1ccnc2c1NC(=O)c1cccnc1N2C1CC1 [NEVIRAPINE]
EC50 [4]: > 15 µM
EC50 [1]: 0.17 µM
EC50 [9]: 0.198 µM
EC50 [11]: 8.1 µM
EC50 [12]: 2.57 µM
EC50 [13]: 7.71 µM

O=C1Nc2ccc(Cl)cc2[C@@](C#CC2CC2)(C(F)(F)F)O1 [EFAVIRENZ]
EC50 [4]: 0.205 µM
EC50 [9]: 0.0062 µM
EC50 [11]: 0.0942 µM
EC50 [12]: 0.0371 µM
EC50 [13]: 0.0071 µM

— ChEMBL document CHEMBL5137044, “Expansion of the S-CN-DABO scaffold to exploit the impact on inhibitory activities against the non-nucleoside HIV-1 reverse transcriptase” (Eur J Med Chem, 2022)
